Drawing on patent publication US20130052134A1, “PEG-PLGA-PLL POLYMER AND METHOD FOR PREPARING AND USING THE SAME AS THE DRUG AND GENE CARRIER” (Shanghai Cancer Institute, priority 2009, published 2013), this text covers tumor inhibition rate for 1 compound.

This assay deals with MDA-MB-231 mammary cancer. In words: Therapeutic test in mice bearing MDA-MB-231 mammary cancer (tumor volume). In kind it is in vivo, nude mice. To be noted: tail intravenous injection once every 4 days; treatment duration 36 days.

Description: 0.2 ml of MDA-MB-231 mammary cancer cells (2×10^5) was subcutaneously injected to the axillary region near the forelimb of nude mice, and 2 weeks later, the tumor model was successfully established.
In the therapeutic test, corresponding normal saline, free mitoxantrone, drug-loaded mPEG-PLGA-PLL nanoparticles and drug-loaded mPEG-PLGA-PLL-RGD nanoparticles were given once every 4 days through tail intravenous injection, the tumor volume was subsequently measured, and the treatment duration was 36 days.

As for `O=C1c2c(O)ccc(O)c2C(=O)c2c(NCCNCCO)ccc(NCCNCCO)c21` [free mitoxantrone chloride, mitoxantrone chloride], the tumor inhibition rate is 10.32%.
